According to patent publication US5767291A, “Phenyl heterocycles as cox-2 inhibitors” (Merck Frosst Canada, Inc., priority 1996, dated 1998):

Experiments:
cyclooxygenase-2 (COX-2) [1] = target: T1, cyclooxygenase-2 (COX-2) (Homo sapiens, UniProt P35354); assay: Microsomal cyclooxygenase assay, COX-2 (PGE2 synthesis, microsomes of human osteosarcoma 143 cells); assay type: biochemical; details: for inhibition at 0.1 µM: 100 nM; for inhibition at 0.1 µM / inhibition at 0.01 µM / inhibition at 1 µM: read-out: Microsomes COX-2 % inhib.; for inhibition at 1 µM: 1000 nM
T1 construct: human osteosarcoma 143 cells (which specifically express cyclooxygenase-2); endogenous in cells; host or cells: human osteosarcoma 143 cells (whole cells, and microsomes prepared from them)
T1 sequence (P35354 18-604): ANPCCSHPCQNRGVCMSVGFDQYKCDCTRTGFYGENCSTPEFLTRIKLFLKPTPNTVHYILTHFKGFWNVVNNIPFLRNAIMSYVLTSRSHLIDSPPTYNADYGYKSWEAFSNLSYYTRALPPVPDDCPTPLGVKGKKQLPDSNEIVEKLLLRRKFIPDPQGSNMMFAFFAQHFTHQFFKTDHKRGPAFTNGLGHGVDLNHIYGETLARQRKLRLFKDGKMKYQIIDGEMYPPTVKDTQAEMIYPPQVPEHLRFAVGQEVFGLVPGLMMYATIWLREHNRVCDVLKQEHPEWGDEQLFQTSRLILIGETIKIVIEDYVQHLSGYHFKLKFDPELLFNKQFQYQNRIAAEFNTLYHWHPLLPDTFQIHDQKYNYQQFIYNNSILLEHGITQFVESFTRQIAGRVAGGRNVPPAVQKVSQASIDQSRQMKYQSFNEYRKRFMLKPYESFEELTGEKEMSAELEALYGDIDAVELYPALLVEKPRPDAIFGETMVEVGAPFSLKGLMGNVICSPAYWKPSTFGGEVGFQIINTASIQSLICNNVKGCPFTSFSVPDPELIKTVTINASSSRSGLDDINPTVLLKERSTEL
Method: (§1) Compounds were tested as inhibitors of cyclooxygenase activity in whole cell and microsomal cyclooxygenase assays. Both of these assays measured prostaglandin E2 (PGE2) synthesis in response to arachidonic acid, using a radioimmunoassay. Cells used for whole cell assays, and from which microsomes were prepared for microsomal assays, were human osteosarcoma 143 cells (which specifically express cyclooxygenase-2) and human U-937 cells (which specifically express cyclooxygenase-1). In these assays, 100% activity is defined as the difference between prostaglandin E2 synthesis in the absence and presence of arachidonate addition.

cyclooxygenase-2 (COX-2) [2] = target: T1, cyclooxygenase-2 (COX-2); assay: Whole cell cyclooxygenase assay, COX-2 (PGE2 synthesis in response to arachidonic acid, radioimmunoassay), human osteosarcoma 143 cells; assay type: cell-based; details: read-out: Whole Cells COX-2 % inhib.; for inhibition at 0.01 µM: 10 nM; for inhibition at 0.04 µM: 40 nM; for inhibition at 0.16 µM: 160 nM; for inhibition at 0.08 µM: 80 nM
Method: as §1

cyclooxygenase-1 (COX-1) [3] = target: T2, cyclooxygenase-1 (COX-1) (Homo sapiens, UniProt P23219); assay: Whole cell cyclooxygenase assay, COX-1 (PGE2 synthesis in response to arachidonic acid, radioimmunoassay), human U-937 cells; assay type: cell-based; details: read-out: Whole Cells COX-1 % inhib.; for inhibition at 0.1 µM: 100 nM; for inhibition at 0.01 µM: 10 nM
T2 construct: human U-937 cells (which specifically express cyclooxygenase-1); endogenous in cells; host or cells: human U-937 cells (whole cells, and microsomes prepared from them)
Method: as §1

cyclooxygenase-1 (COX-1) [4] = target: T2, cyclooxygenase-1 (COX-1); assay: Microsomal cyclooxygenase assay, COX-1 (PGE2 synthesis, microsomes of human U-937 cells); assay type: biochemical; details: for inhibition at 0.1 µM: 100 nM; for inhibition at 0.1 µM / inhibition at 0.01 µM / inhibition at 1 µM: read-out: Microsomes COX-1 % inhib.; for inhibition at 1 µM: 1000 nM
Method: as §1

T2 sequence (P23219 24-599): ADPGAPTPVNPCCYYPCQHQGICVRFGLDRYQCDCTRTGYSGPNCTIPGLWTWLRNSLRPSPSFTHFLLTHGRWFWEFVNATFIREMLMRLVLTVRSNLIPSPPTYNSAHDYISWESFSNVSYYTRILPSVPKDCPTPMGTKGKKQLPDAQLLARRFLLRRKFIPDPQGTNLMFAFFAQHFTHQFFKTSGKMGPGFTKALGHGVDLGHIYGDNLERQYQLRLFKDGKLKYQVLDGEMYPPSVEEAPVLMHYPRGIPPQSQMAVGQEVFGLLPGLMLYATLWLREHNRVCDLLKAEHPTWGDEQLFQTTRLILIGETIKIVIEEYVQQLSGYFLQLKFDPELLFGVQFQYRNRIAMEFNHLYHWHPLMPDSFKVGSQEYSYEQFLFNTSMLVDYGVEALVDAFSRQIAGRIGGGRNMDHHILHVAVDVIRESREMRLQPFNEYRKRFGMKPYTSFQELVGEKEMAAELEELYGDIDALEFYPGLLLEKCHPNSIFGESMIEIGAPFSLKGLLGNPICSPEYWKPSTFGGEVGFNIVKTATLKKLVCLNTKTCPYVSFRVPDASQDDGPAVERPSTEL

Work on CC(C)(O)c1cc(-c2ccc(S(N)(=O)=O)cc2)c(-c2ccc(F)cc2)s1 [Example 1] yielded an inhibition at 0.1 µM (cyclooxygenase-2 (COX-2) [1]) of 53%, an inhibition at 0.1 µM (cyclooxygenase-2 (COX-2) [2]; 100 nM) of 96% and an inhibition at 0.1 µM (cyclooxygenase-1 (COX-1) [3]) of 12%. The inhibition at 0.1 µM (cyclooxygenase-1 (COX-1) [4]) was 8%.
NS(=O)(=O)c1ccc(-c2ccsc2-c2ccc(F)cc2)cc1 [Example 2, 3-(4-(Aminosulfonyl)phenyl)-2-(4-fluorophenyl)thiophene] showed an inhibition at 0.01 µM (cyclooxygenase-2 (COX-2) [1]; 10 nM) of 49%, an inhibition at 0.01 µM (cyclooxygenase-2 (COX-2) [2]) of 69% and an inhibition at 0.01 µM (cyclooxygenase-1 (COX-1) [3]) of 0%. It also gave an inhibition at 0.01 µM (cyclooxygenase-1 (COX-1) [4]; 10 nM) of 25%.
In the case of CC(C)c1cc(-c2ccc(S(N)(=O)=O)cc2)c(-c2ccc(F)cc2)s1 [Example 3, 3-(4-(Aminosulfonyl)phenyl)-2-(4-fluorophenyl)-5-(2-propyl)thiophene], the inhibition at 0.01 µM (cyclooxygenase-2 (COX-2) [1]; 10 nM) was 33%, the inhibition at 0.1 µM (cyclooxygenase-2 (COX-2) [1]) was 76% and the inhibition at 0.01 µM (cyclooxygenase-2 (COX-2) [2]) was 42%. It also gave an inhibition at 0.1 µM (cyclooxygenase-2 (COX-2) [2]; 100 nM) of 100%, an inhibition at 0.01 µM (cyclooxygenase-1 (COX-1) [4]; 10 nM) of 19% and an inhibition at 0.1 µM (cyclooxygenase-1 (COX-1) [4]) of 12%.
Work on NS(=O)(=O)c1ccc(-c2ccsc2C2CCCCC2)cc1 [Example 4, 3-(4-(Aminosulfonyl)phenyl)-2-cyclohexylthiophene] yielded an inhibition at 0.01 µM (cyclooxygenase-2 (COX-2) [1]; 10 nM) of 47% and an inhibition at 0.01 µM (cyclooxygenase-1 (COX-1) [4]; 10 nM) of 2%.
CS(=O)(=O)c1ccc(-c2cc(C(=O)O)sc2-c2ccc(C(=O)O)cc2)cc1 [Example 5, 5-(4-Carboxyphenyl)-4-(4-(methylsulfonyl)phenyl)thiophene-2-carboxylic acid] gave an inhibition at 0.01 µM (cyclooxygenase-2 (COX-2) [1]; 10 nM) of 43%, an inhibition at 0.01 µM (cyclooxygenase-2 (COX-2) [2]) of 0% and an inhibition at 0.01 µM (cyclooxygenase-1 (COX-1) [3]) of 0%. The inhibition at 0.01 µM (cyclooxygenase-1 (COX-1) [4]; 10 nM) was 31%.
Cc1nc(-c2ccc(F)cc2)c(-c2ccc(S(C)(=O)=O)cc2)s1 [Example 6, 4-(4-Fluorophenyl)-2-methyl-5-(4-(methylsulfonyl)phenyl)thiazole] was tested, and the inhibition at 0.1 µM (cyclooxygenase-2 (COX-2) [1]) was 19%, the inhibition at 0.1 µM (cyclooxygenase-2 (COX-2) [2]; 100 nM) was 78% and the inhibition at 0.1 µM (cyclooxygenase-1 (COX-1) [4]) was 16%.
CS(=O)(=O)c1ccc(C2=C(c3ccc(F)cc3)C(=O)CC2)cc1 [Example 7, 2-(4-Fluorophenyl)-3-(4-(methylsulfonyl)phenyl)-2-cyclopenten-1-one] gave an inhibition at 1 µM (cyclooxygenase-2 (COX-2) [1]) of 58%, an inhibition at 0.1 µM (cyclooxygenase-2 (COX-2) [2]; 100 nM) of 74% and an inhibition at 0.1 µM (cyclooxygenase-1 (COX-1) [3]) of 0%. For the same compound, the inhibition at 1 µM (cyclooxygenase-1 (COX-1) [4]) was 16%.
CS(=O)(=O)c1ccc(C2=C(c3ccc(F)cc3)C(=O)OC2)cc1 [Example 9, 3-(4-Fluorophenyl)-4-(4-(methylsulfonyl)phenyl)-2-(5H)-furanone] gave an inhibition at 0.1 µM (cyclooxygenase-2 (COX-2) [1]) of 37% and an inhibition at 0.1 µM (cyclooxygenase-2 (COX-2) [2]) of 83%.
For NS(=O)(=O)c1ccc(C2=C(c3ccc(F)cc3)C(=O)OC2)cc1 [Example 10, 3-(4-Fluorophenyl)-4-(4-(aminosulfonyl)phenyl)-2-(2H)-furanone], the inhibition at 0.1 µM (cyclooxygenase-2 (COX-2) [1]) was 71%, the inhibition at 0.1 µM (cyclooxygenase-2 (COX-2) [2]; 100 nM) was 95% and the inhibition at 0.1 µM (cyclooxygenase-1 (COX-1) [4]) was 12%.
CS(=O)(=O)c1ccc(-c2cocc2-c2ccc(F)cc2)cc1 [Example 11, 3-(4-Fluorophenyl)-4-(4-(methylsulfonyl)phenyl)furan] showed an inhibition at 0.1 µM (cyclooxygenase-2 (COX-2) [1]) of 46%, an inhibition at 0.1 µM (cyclooxygenase-2 (COX-2) [2]; 100 nM) of 39% and an inhibition at 0.1 µM (cyclooxygenase-1 (COX-1) [4]) of 7%.
In the case of NS(=O)(=O)c1ccc(-c2sccc2-c2ccc(F)cc2)cc1 [Example 13, 2-((4-aminosulfonyl)phenyl)-3-(4-fluorophenyl)thiophene], the “Microsomes COX-2 % inhib.” value (cyclooxygenase-2 (COX-2) [1]; 10 nM, 0.01 µM) was 58%, the inhibition at 0.01 µM (cyclooxygenase-2 (COX-2) [1]; 10 nM) was 52% and the inhibition at 0.01 µM (cyclooxygenase-2 (COX-2) [2]) was 41%. The inhibition at 0.1 µM (cyclooxygenase-2 (COX-2) [2]; 100 nM) was 84%, the “Microsomes COX-1 % inhib.” value (cyclooxygenase-1 (COX-1) [4]; 10 nM, 0.01 µM) was 10% and the inhibition at 0.01 µM (cyclooxygenase-1 (COX-1) [4]; 10 nM) was 7%.
For O=C(NS(=O)(=O)c1ccc(-c2ccsc2-c2ccc(F)cc2)cc1)C(F)(F)F [Example 14, 3-(4-(Trifluoroacetylaminosulfonyl)phenyl)-2-(4-fluorophenyl)thiophene], the inhibition at 0.01 µM (cyclooxygenase-2 (COX-2) [1]; 10 nM) was 45%, the inhibition at 0.1 µM (cyclooxygenase-2 (COX-2) [1]) was 63% and the inhibition at 1 µM (cyclooxygenase-2 (COX-2) [1]) was 69%. It also gave an inhibition at 0.01 µM (cyclooxygenase-2 (COX-2) [2]) of 73%, an inhibition at 0.1 µM (cyclooxygenase-2 (COX-2) [2]; 100 nM) of 89% and an inhibition at 1 µM (cyclooxygenase-2 (COX-2) [2]; 1000 nM) of 101%. The inhibition at 0.01 µM (cyclooxygenase-1 (COX-1) [4]; 10 nM) was 29%, the inhibition at 0.1 µM (cyclooxygenase-1 (COX-1) [4]) was 0% and the inhibition at 1 µM (cyclooxygenase-1 (COX-1) [4]) was 0%.
In the case of CS(=O)(=O)c1ccc(C2=C(c3ccc(Cl)c(F)c3)C(=O)OC2)cc1 [Example 46, 3-(4-Chloro-3-fluorophenyl)-4-(4-(methylsulfonyl)phenyl)-2-(5H)-furanone], the inhibition at 0.01 µM (cyclooxygenase-2 (COX-2) [2]) was 76%, the inhibition at 0.04 µM (cyclooxygenase-2 (COX-2) [2]) was 94% and the inhibition at 0.16 µM (cyclooxygenase-2 (COX-2) [2]) was 97%.
In the case of CS(=O)(=O)c1ccc(C2=C(c3ccc(Br)c(F)c3)C(=O)OC2)cc1 [Example 47, 3-(4-Bromo-3-fluorophenyl)-4-(4-(methylsulfonyl)phenyl)-2-(5H)-furanone], the inhibition at 0.01 µM (cyclooxygenase-2 (COX-2) [2]) was 61%, the inhibition at 0.04 µM (cyclooxygenase-2 (COX-2) [2]) was 74% and the inhibition at 0.16 µM (cyclooxygenase-2 (COX-2) [2]) was 101%.
CS(=O)(=O)c1ccc(C2=C(c3ccc(Br)cc3Cl)C(=O)OC2)cc1 [Example 48, 3-(4-Bromo-2-chlorophenyl)-4-(4-(methylsulfonyl)phenyl)-2-(5H)-furanone] gave an inhibition at 0.01 µM (cyclooxygenase-2 (COX-2) [2]) of 7% and an inhibition at 0.16 µM (cyclooxygenase-2 (COX-2) [2]) of 47%.
With CS(=O)(=O)c1ccc(C2=C(c3ccc4ccccc4c3)C(=O)OC2)cc1 [Example 49, 3-(2-Naphthyl)-4-(4-(methylsulfonyl)phenyl)-2-(5H)-furanone] the inhibition at 0.01 µM (cyclooxygenase-2 (COX-2) [2]) was 53%, the inhibition at 0.04 µM (cyclooxygenase-2 (COX-2) [2]) was 91% and the inhibition at 0.08 µM (cyclooxygenase-2 (COX-2) [2]) was 99%.
For CS(=O)(=O)c1ccc(C2=C(c3ccc4cccnc4c3)C(=O)OC2)cc1 [Example 50, 3-(7-Quinolinyl)-4-(4-(methylsulfonyl)phenyl)-2-(5H)-furanone], the inhibition at 0.08 µM (cyclooxygenase-2 (COX-2) [2]) was 42%.
NS(=O)(=O)c1ccc(C2=C(c3ccc(Cl)c(Cl)c3)C(=O)OC2)cc1 [Example 51, 3-(3 4-Dichlorophenyl)-4-(4-(aminosulfonyl)phenyl)-2-(2H)-furanone] was tested, and the inhibition at 0.005 µM (cyclooxygenase-2 (COX-2) [2]; 5 nM) was 49%, the inhibition at 0.02 µM (cyclooxygenase-2 (COX-2) [2]; 20 nM) was 95% and the inhibition at 0.04 µM (cyclooxygenase-2 (COX-2) [2]) was 102%.
NS(=O)(=O)c1ccc(C2=C(c3ccc(F)c(F)c3)C(=O)OC2)cc1 [Example 52, 3-(3,4-Difluorophenyl)-4-(4-(aminosulfonyl)phenyl)-2-(2H)-furanone] was tested, and the inhibition at 0.01 µM (cyclooxygenase-2 (COX-2) [2]) was 50%, the inhibition at 0.04 µM (cyclooxygenase-2 (COX-2) [2]) was 82% and the inhibition at 0.16 µM (cyclooxygenase-2 (COX-2) [2]) was 102%.
For COc1ccc(C2=C(c3ccc(S(N)(=O)=O)cc3)COC2=O)cc1Cl [Example 53, 3-(3-Chloro-4-methoxyphenyl)-4-(4-(aminosulfonyl)phenyl)-2-(2H)-furanone], the inhibition at 0.01 µM (cyclooxygenase-2 (COX-2) [2]) was 54%, the inhibition at 0.04 µM (cyclooxygenase-2 (COX-2) [2]) was 96% and the inhibition at 0.16 µM (cyclooxygenase-2 (COX-2) [2]) was 102%.
COc1ccc(C2=C(c3ccc(S(N)(=O)=O)cc3)COC2=O)cc1Br [Example 54, 3-(3-Bromo-4-methoxyphenyl)-4-(4-(aminosulfonyl)phenyl)-2-(2H)-furanone] showed an inhibition at 0.01 µM (cyclooxygenase-2 (COX-2) [2]) of 81%, an inhibition at 0.08 µM (cyclooxygenase-2 (COX-2) [2]) of 91% and an inhibition at 0.16 µM (cyclooxygenase-2 (COX-2) [2]) of 99%.
